Consider 1 compound from US8486372B2, “Cyclic azapeptides as integrin markers and methods of using” (Siemens Medical Solutions USA, Inc., priority 2007, dated 2013).

The target in the assay is T1, Integrin αvβ3 expressing U87MG cells (Homo sapiens, UniProt P05106+P06756).
T1 construct: Integrin αvβ3 expressing U87MG cells; endogenous in cells; host or cells: U87MG cells
As to the kind of experiment: Cell-based integrin binding competition assay against green fluorescence labeled compound 13. To be noted: 0-32 μM compound, 2 μM compound 13, 2 hrs, fluorescence reading, FIG. 2. On the procedure:
Integrin αvβ3 expressing U87MG cells were incubated with a series of concentration of RGD compounds (0-32 μM) in the presence of 2 μM of green fluorescence labeled compound 13 for 2 hrs. After incubation, cells were washed three times to eliminate unbound RGD compounds. Fluorescence readings (RLU) were then taken (excitation at 491 nm, emission at 518 nm, cutoff 515 nm).

`N=C(N)NCCC[C@@H]1NC(=O)[C@H](CCCCN)NC(=O)N(Cc2ccccc2)NC(=O)[C@H](CC(=O)O)NC(=O)CNC1=O` [Compound 7, 2-((5S,8S,14S)-5-(4-aminobutyl)-2-benzyl-8-(3-guanidinopropyl)-3,6,9,12,15-pentaoxo-1,2,4,7,10,13-hexaazacyclopentadecan-14-yl)acetic acid]: the “potency in binding competition” value is “very similar in potency”.
